According to patent publication US10093630B2, “Pyrazole compounds and methods of making and using same” (ABIDE THERAPEUTICS, INC., priority 2014, dated 2018):

Experiments:
Test in all cases: In vitro competitive activity-based protein profiling (gel-based, FP-Rh or HT-01 probe)
Type in all cases: biochemical
ABHD6 = target: T1, ABHD6 (Mus musculus, UniProt Q8R2Y0); details: for inhibition at 10 µM: 10 μM inhibitor, read-out: % Inhibition at 10 μM, C = ABHD6; for inhibition at 1 µM: 1 μM inhibitor, read-out: % Inhibition at 1 μM, C = ABHD6; for IC50: mouse brain membrane fraction or cell lysates, 30 min preincubation at 37° C., read-out: Mouse (IC50 value, nM) ABHD6
T1 construct: Proteomes (mouse brain membrane fraction or cell lysates); from tissue; host or cells: mouse brain membrane fraction (or cell lysates, not specified)
T1 sequence (Q8R2Y0 1-336): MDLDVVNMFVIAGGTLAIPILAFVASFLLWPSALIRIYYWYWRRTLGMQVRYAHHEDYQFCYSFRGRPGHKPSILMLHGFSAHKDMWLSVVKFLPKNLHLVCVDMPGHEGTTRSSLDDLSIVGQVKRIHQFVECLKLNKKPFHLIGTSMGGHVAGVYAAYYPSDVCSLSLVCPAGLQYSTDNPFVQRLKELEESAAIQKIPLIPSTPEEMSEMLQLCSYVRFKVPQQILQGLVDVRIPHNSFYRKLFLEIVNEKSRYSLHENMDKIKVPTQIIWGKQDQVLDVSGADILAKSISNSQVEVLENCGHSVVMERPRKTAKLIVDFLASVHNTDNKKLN
Outline: (§1)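 Mouse brain membrane or cell lysate proteomes (1.0 mg/mL) preincubated with inhibitors 30 min at 37° C, then labelled with FP-Rh or HT-01 for 30 min at 37° C. After SDS-PAGE, activity quantified from fluorescent band intensity.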

FAAH = target: T2, FAAH (Mus musculus, UniProt O08914); details: for inhibition at 10 µM: 10 μM inhibitor, read-out: % Inhibition at 10 μM, B = FAAH; for inhibition at 1 µM: 1 μM inhibitor, read-out: % Inhibition at 1 μM, B = FAAH
T2 construct: Proteomes (mouse brain membrane fraction or cell lysates); from tissue; host or cells: mouse brain membrane fraction (or cell lysates, not specified)
T2 sequence (O08914 1-579): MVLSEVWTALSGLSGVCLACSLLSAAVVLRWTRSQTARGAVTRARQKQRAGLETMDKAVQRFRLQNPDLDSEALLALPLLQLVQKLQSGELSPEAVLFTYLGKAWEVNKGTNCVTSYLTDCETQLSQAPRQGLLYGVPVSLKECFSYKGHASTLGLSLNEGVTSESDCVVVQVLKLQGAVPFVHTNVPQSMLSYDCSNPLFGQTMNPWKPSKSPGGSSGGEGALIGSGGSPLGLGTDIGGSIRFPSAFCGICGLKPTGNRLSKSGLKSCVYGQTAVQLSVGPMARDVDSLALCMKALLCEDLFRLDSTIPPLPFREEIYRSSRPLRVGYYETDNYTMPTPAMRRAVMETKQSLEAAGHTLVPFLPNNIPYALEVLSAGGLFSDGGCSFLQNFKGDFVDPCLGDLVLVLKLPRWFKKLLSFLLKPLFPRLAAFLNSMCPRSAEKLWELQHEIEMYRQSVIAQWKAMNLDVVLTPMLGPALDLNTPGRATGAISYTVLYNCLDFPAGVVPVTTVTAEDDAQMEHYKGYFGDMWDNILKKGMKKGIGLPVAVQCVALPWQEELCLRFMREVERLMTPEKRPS
Outline: as §1

MAGL = target: T3, MAGL (Mus musculus, UniProt O35678); details: for inhibition at 10 µM: 10 μM inhibitor; for inhibition at 1 µM: 1 μM inhibitor
T3 construct: Proteomes (mouse brain membrane fraction or cell lysates); from tissue; host or cells: mouse brain membrane fraction (or cell lysates, not specified)
T3 sequence (O35678 1-303): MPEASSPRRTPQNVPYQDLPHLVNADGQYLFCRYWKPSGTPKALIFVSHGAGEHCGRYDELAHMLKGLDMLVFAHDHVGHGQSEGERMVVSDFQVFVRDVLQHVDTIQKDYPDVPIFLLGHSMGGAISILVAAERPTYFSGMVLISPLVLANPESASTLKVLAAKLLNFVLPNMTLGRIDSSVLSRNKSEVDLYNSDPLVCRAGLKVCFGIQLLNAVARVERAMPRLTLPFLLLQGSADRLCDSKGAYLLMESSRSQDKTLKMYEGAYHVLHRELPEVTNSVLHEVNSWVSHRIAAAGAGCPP
Outline: as §1

PLA2G7 = target: T4, PLA2G7 (Mus musculus, UniProt Q60963); details: for inhibition at 10 µM: 10 μM inhibitor, read-out: % Inhibition at 10 μM, D = PLA2G7; for inhibition at 1 µM: 1 μM inhibitor, read-out: % Inhibition at 1 μM, D = PLA2G7
T4 construct: Proteomes (mouse brain membrane fraction or cell lysates); from tissue; host or cells: mouse brain membrane fraction (or cell lysates, not specified)
T4 sequence (Q60963 22-440): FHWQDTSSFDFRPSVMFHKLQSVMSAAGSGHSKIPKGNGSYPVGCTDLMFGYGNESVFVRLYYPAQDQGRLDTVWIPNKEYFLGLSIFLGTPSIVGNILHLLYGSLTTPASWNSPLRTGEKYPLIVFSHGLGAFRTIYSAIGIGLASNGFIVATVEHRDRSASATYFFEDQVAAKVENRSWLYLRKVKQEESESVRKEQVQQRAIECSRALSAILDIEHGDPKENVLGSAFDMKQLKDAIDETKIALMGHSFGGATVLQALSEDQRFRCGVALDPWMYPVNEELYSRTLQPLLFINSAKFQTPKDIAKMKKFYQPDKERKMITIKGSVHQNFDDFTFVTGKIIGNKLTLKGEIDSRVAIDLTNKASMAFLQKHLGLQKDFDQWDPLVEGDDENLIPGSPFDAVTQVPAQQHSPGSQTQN
Outline: as §1

Row | Structure (SMILES) | inhibition at 10 µM (ABHD6) | inhibition at 10 µM (FAAH) | inhibition at 10 µM (MAGL) | inhibition at 10 µM (PLA2G7) | inhibition at 1 µM (ABHD6) | inhibition at 1 µM (FAAH) | inhibition at 1 µM (MAGL) | inhibition at 1 µM (PLA2G7) | IC50 (ABHD6) | IC50 (FAAH; mouse brain membrane fraction or cell lysates, 30 min preincubation at 37° C., read-out: Mouse (IC50 value, nM) FAAH) | IC50 (MAGL; mouse brain membrane fraction or cell lysates, 30 min preincubation at 37° C., read-out: Mouse (IC50 value, nM) MAGL)
1 | O=C(N1CCN(Cc2ccc3ccccc3c2)CC1)n1cc(Br)cn1 [Example 13, (4-Bromo-1H-pyrazol-1-yl)(4-(naphthalen-2-ylmethyl)piperazin-1-yl)methanone] | > 75% | > 75% | > 75% | > 75% | > 75% | > 75% | > 75% | > 75% | – | – | –
2 | O=C(N1CCN(Cc2ccc(C(F)(F)F)cc2N2CCCC2)CC1)n1cc(-c2ccccc2C(F)(F)F)cn1 [Example 115, (4-(2-(Pyrrolidin-1-yl)-4-(trifluoromethyl)benzyl)piperazin-1-yl)(4-(2-(trifluoromethyl)phenyl)-1H-pyrazol-1-yl)methanone] | 25 to 75% | 25 to 75% | 25 to 75% | > 75% | > 75% | < 25% | < 25% | 25 to 75% | 100 to 1000 nM | – | –
3 | CC(C)(C)OC(=O)N1CCN(C(=O)n2cccn2)CC1 [Example 4, tert-Butyl 4-(1H-pyrazole-1-carbonyl)piperazine-1-carboxylate] | > 75% | > 75% | 25 to 75% | > 75% | 25 to 75% | > 75% | < 25% | < 25% | – | – | –
4 | COc1cc(-c2ccccc2)ccc1CN1CCN(C(=O)n2cc(Cl)cn2)CC1 [Example 141, (4-Chloro-1H-pyrazol-1-yl)(4-((3-methoxybiphenyl-4-yl)methyl)piperazin-1-yl)methanone] | > 75% | > 75% | > 75% | > 75% | > 75% | > 75% | > 75% | < 25% | 100 to 1000 nM | 100 to 1000 nM | < 100 nM
5 | Cc1cnn(C(=O)N2CCN(S(C)(=O)=O)CC2)c1 [Example 162, (4-Methyl-1H-pyrazol-1-yl)(4-(methylsulfonyl)piperazin-1-yl)methanone] | 25 to 75% | < 25% | < 25% | > 75% | < 25% | < 25% | < 25% | < 25% | – | – | –

Results, then the compound that gave them:

Row | inhibition at 10 µM (ABHD6) | inhibition at 10 µM (FAAH) | inhibition at 10 µM (MAGL) | inhibition at 10 µM (PLA2G7) | inhibition at 1 µM (ABHD6) | inhibition at 1 µM (FAAH) | inhibition at 1 µM (MAGL) | inhibition at 1 µM (PLA2G7) | IC50 (ABHD6) | IC50 (FAAH; mouse brain membrane fraction or cell lysates, 30 min preincubation at 37° C., read-out: Mouse (IC50 value, nM) FAAH) | IC50 (MAGL; mouse brain membrane fraction or cell lysates, 30 min preincubation at 37° C., read-out: Mouse (IC50 value, nM) MAGL) | Structure (SMILES)
6 | < 25% | < 25% | < 25% | < 25% | – | – | – | – | – | – | – | Cc1cnn(C(=O)N(C)CCN(C)Cc2ccccc2)c1 [Example 171, N-(2-(Benzyl(methyl)amino)ethyl)-N,4-dimethyl-1H-pyrazole-1-carboxamide]
7 | > 75% | > 75% | > 75% | > 75% | > 75% | > 75% | > 75% | > 75% | – | – | – | O=C(N1CCN(c2ccc(Cl)cc2)CC1)n1cc(C(F)(F)F)cn1 [Example 229, (4-(4-Chlorophenyl)piperazin-1-yl)(4-(trifluoromethyl)-1H-pyrazol-1-yl)methanone]
8 | > 75% | > 75% | > 75% | > 75% | > 75% | > 75% | > 75% | > 75% | – | – | – | O=C(N1CCN(c2cccc(N3CCCC3)c2)CC1)n1cc(C(F)(F)F)cn1 [Example 240, (4-(3-(Pyrrolidin-1-yl)phenyl)piperazin-1-yl)(4-(trifluoromethyl)-1H-pyrazol-1-yl)methanone]
